Legend:
Assay in all cases: relative viability (nuclei count vs DMSO), 5 days (fraction); higher = more cells survive
RU-SKI 43 + OSI-027 = compound: CC[C@@H](C)CNCC(=O)N1CCC2=C([C@@H]1COC3=CC=CC(=C3)C)C=CS2 [RU-SKI 43] + COc1cccc2cc(-c3nc([C@H]4CC[C@H](C(=O)O)CC4)n4ncnc(N)c34)[nH]c12 [OSI-027] (partner 0.5 µM)
Method in brief: (§1)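 Medians of duplicate plates are given as relative viability. That measure is the nuclei count in treated wells divided by the count in vehicle wells. Counts were taken on 4× images of lung cancer cell lines in 1536-well plates, 5 days after pin-tool dosing the day after seeding with one drug alone or a fixed anchor-drug dose plus five library-drug doses (not always all listed) in √10 steps.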

RU-SKI 43 + Decitabine = compound: CC[C@@H](C)CNCC(=O)N1CCC2=C([C@@H]1COC3=CC=CC(=C3)C)C=CS2 [RU-SKI 43] + Nc1ncn([C@H]2C[C@H](O)[C@@H](CO)O2)c(=O)n1 [Decitabine] (partner 2 µM)
Method in brief: as §1

Irinotecan + Navitoclax = compound: CCc1c2c(nc3ccc(OC(=O)N4CCC(N5CCCCC5)CC4)cc13)-c1cc3c(c(=O)n1C2)COC(=O)[C@]3(O)CC [Irinotecan] + CC1(C)CCC(c2ccc(Cl)cc2)=C(CN2CCN(c3ccc(C(=O)NS(=O)(=O)c4ccc(N[C@H](CCN5CCOCC5)CSc5ccccc5)c(S(=O)(=O)C(F)(F)F)c4)cc3)CC2)C1 [Navitoclax] (partner 0.5 µM)
Method in brief: as §1

Irinotecan + AZD7762 = compound: CCc1c2c(nc3ccc(OC(=O)N4CCC(N5CCCCC5)CC4)cc13)-c1cc3c(c(=O)n1C2)COC(=O)[C@]3(O)CC [Irinotecan] + NC(=O)Nc1cc(-c2cccc(F)c2)sc1C(=O)N[C@H]1CCCNC1 [AZD7762] (partner 0.2 µM)
Method in brief: as §1

Cell Line	relative viability (RU-SKI 43 + OSI-027; first compound 0.1 µM)	relative viability (RU-SKI 43 + OSI-027; first compound 0.3162 µM)	relative viability (RU-SKI 43 + OSI-027; first compound 1 µM)	relative viability (RU-SKI 43 + OSI-027; first compound 3.162 µM)	relative viability (RU-SKI 43 + OSI-027; first compound 10 µM)	relative viability (RU-SKI 43 + Decitabine; first compound 0.1 µM)	relative viability (RU-SKI 43 + Decitabine; first compound 0.3162 µM)	relative viability (RU-SKI 43 + Decitabine; first compound 1 µM)	relative viability (RU-SKI 43 + Decitabine; first compound 3.162 µM)	relative viability (RU-SKI 43 + Decitabine; first compound 10 µM)	relative viability (Irinotecan + Navitoclax; first compound 0.6325 µM)	relative viability (Irinotecan + Navitoclax; first compound 2 µM)	relative viability (Irinotecan + Navitoclax; first compound 6.325 µM)	relative viability (Irinotecan + Navitoclax; first compound 20 µM)	relative viability (Irinotecan + AZD7762; first compound 0.6325 µM)	relative viability (Irinotecan + AZD7762; first compound 2 µM)	relative viability (Irinotecan + AZD7762; first compound 6.325 µM)	relative viability (Irinotecan + AZD7762; first compound 20 µM)
NCI-H1792	0.682	1.05	0.969	0.939	0.707	0.392	0.667	0.682	0.728	0.561	0.598	0.72	0.162	0.095	0.241	0.502	0.169	0.274
HCC-78	0.392	0.392	0.406	0.386	0.419	0.676	0.602	0.781	0.667	0.639	0.75	0.525	0.202	0.191	0.629	0.666	0.392	0.302
BEN	0.31	0.292	0.306	0.302	0.33	0.806	0.692	0.812	0.729	0.78	0.0453	0.0844	0.0937	0.248	0.55	0.677	0.447	0.472
A-427	0.471	0.345	0.546	0.507	0.43	0.555	0.477	0.568	0.551	0.538	–	0.222	0.215	0.172	0.712	0.642	0.315	0.18
EMC-BAC-2	0.336	0.32	0.365	0.378	0.361	0.984	0.965	1.02	0.997	1.03	0.705	0.36	0.202	0.226	0.942	0.696	0.327	0.287
NCI-H1975	0.749	0.829	1.02	0.779	0.604	0.346	0.377	0.439	0.381	0.276	1.06	1.11	0.411	0.167	0.826	0.7	0.527	0.322
NCI-H1755	0.757	0.825	0.781	0.841	0.699	0.714	0.798	0.758	0.715	0.755	0.886	0.283	0.221	0.287	0.53	0.47	0.345	0.327
EKVX	0.412	0.67	0.725	0.813	0.466	0.303	0.254	0.146	0.342	0.365	0.924	0.74	0.344	0.157	–	0.632	0.426	0.246
EPLC-272H	0.32	0.222	0.278	0.326	0.282	0.358	0.369	0.324	0.365	0.353	0.658	0.17	0.144	0.209	–	0.234	0.133	0.137
LCLC-97TM1	0.486	0.551	0.627	0.496	0.485	0.24	0.239	0.243	0.237	0.246	0.254	0.256	0.218	0.163	0.0915	0.143	0.105	0.116
NCI-H2085	0.705	0.678	0.696	0.834	0.552	0.509	0.497	0.572	0.603	0.509	1.03	0.862	0.493	0.507	0.771	0.942	0.957	0.672
HCC-15	0.733	0.805	0.75	0.803	0.625	0.545	0.688	0.732	0.606	0.587	0.5	0.209	0.147	0.167	1.09	1.08	0.609	0.22
RERF-LC-KJ	0.505	0.514	0.603	0.56	0.548	0.782	0.832	0.69	0.681	0.58	0.936	1.18	0.52	0.504	0.55	1.03	0.568	0.277
PC-3 [JPC-3]	0.682	0.862	0.797	0.804	0.366	0.789	0.894	0.804	0.852	0.749	0.703	0.436	0.307	0.333	0.465	0.864	0.463	0.398
NCI-H1355	0.408	0.378	0.486	0.428	0.442	0.351	0.378	0.348	0.348	0.354	0.812	0.28	0.195	0.237	–	0.68	0.368	0.257
NCI-H460	0.643	1.24	1.14	0.913	0.521	0.446	0.698	0.547	0.475	0.379	0.779	0.165	0.0691	0.053	–	0.202	0.0963	0.0901
201T	0.834	0.709	1.06	0.69	0.458	0.838	0.824	0.854	0.856	0.831	–	1.12	0.729	0.451	0.456	0.416	0.345	0.266

— the supplement of paper PMC10307832
